The values below come from patent publication US7910560B2, “Method for increasing breast meat yield in poultry” (Arkion Life Sciences LLC, priority 2003, dated 2011).

For data set [1], the system named is commercial broilers. In words: Natamycin in feeds formulated for growing large broilers (Example 2). The format is in vivo, Gallus domesticus. The source says: (§1) Mixed feed was stored in 50 lb capacity feed sacks. Feed was stored by treatment and treatment diets were further identified with color-codes. After each diet had been mixed, three composite samples (approximately 1 lb each) were collected. The amount of feed mixed for each treatment was as follows: [table] Normal, healthy day-old chicks were obtained from a commercial hatchery. Birds were transported from the hatchery location to Denver, Colo. via commercial air freight. Ground transportation was used to transport chicks from Denver to Wellington, Colo. The study started with 1400 commercial broilers of the species Gallus domesticus. Treatments were assigned to pens using randomized block design. The research facility was divided into 10 blocks of 2 pens each. Birds were assigned randomly according to CQR SOPs. Feed was provided ad libitum throughout the study via two hanging 17-inch diameter tube feeders per pen. A chick feeder tray was also placed in each pen for approximately the first 6 days. All birds were placed on their respective treatment diets upon receipt (approx. 0 days of age). All feed added and removed from pens was weighed and recorded. All experimental diet changes were conducted at the same time for both treatment groups.

In data set [2] the test system is commercial broilers. In words: Natamycin feed additive in diets manufactured using a gap extender (Example 3). The format is in vivo, Gallus domesticus.
From the text: as §1, with “The natamycin test article” for “Mixed feed”, “mixed into the treatment” for “stored in 50 lb capacity feed sacks. Feed was stored”, “the ConAgra Poultry Company. Once” for “treatment and treatment diets were further identified with color-codes. After”, “1140” for “1400”, “SOPs. [table]” for “SOPs.”

For data set [3] the following is noted: cited from earlier work.
The subject of data set [4] is commercial broilers. Kind of data set: Natamycin in feeds formulated for portion-control processed broilers (Example 1). Type of data set: in vivo, Gallus domesticus.
From the text: as §1, with “1200” for “1400”, “domesticus, the birds being placed into pens (30 male/30 female per pen).” for “domesticus.”, “SOPs. [table]” for “SOPs.”

Setting [5] is: 49 days, 1 lbs/ton natamycin in feed ad libitum.

Marks after values point to notes of the source that are not given here.

In the case of `C[C@@H]1C/C=C/C=C/C=C/C=C/[C@H](O[C@@H]2O[C@H](C)[C@@H](O)[C@H](N)[C@@H]2O)C[C@@H]2O[C@](O)(C[C@@H](O)C[C@H]3O[C@@H]3/C=C/C(=O)O1)C[C@H](O)[C@H]2C(=O)O` [Natamycin, natamycin], the “Breast Weight, Treatment Total” value in the data set with commercial broilers [1] (61 days, 1 lbs/ton natamycin in feed ad libitum, 230 birds printed) came to 141.840; in the data set with commercial broilers [4] (43 days, 1 lbs/ton natamycin in feed ad libitum, 230 birds) it was 77.485. For the same molecule, the “% Breast, Treatment Average” value with commercial broilers [1] (61 days, 1 lbs/ton natamycin in feed ad libitum, statistically extremely significant) is reported as 21.72** %; in the data set on commercial broilers [4] (43 days, 1 lbs/ton natamycin in feed ad libitum, statistically extremely significant), 22.83** %. For the same molecule, the “Breast Weight, Treatment Average” value was 0.505 in the data set on commercial broilers [1] (61 days, 1 lbs/ton natamycin in feed ad libitum, statistics not calculated) and 0.337* in the data set on commercial broilers [4] (43 days, 1 lbs/ton natamycin in feed ad libitum, statistically very significant). The “Breast weight and breast yield versus control” value was “increased breast weight and breast yield” in the data set on commercial broilers [1] (over a 61 day period, breast yield increase statistically significant); “increased breast weight and breast yield” with commercial broilers [2] (over a 49 day period, breast yield increase statistically significant); “increased breast weight and breast yield” in the data set with commercial broilers [4] (over a 43 day period, statistically significant). Besides, the “Breast Weight, Bird Average” value with commercial broilers [2] (setting [5]) turned out to be 0.465. For the same molecule, in the data set on commercial broilers [2] (setting [5]), the “Breast Weight, Pen Average” value amounted to 8.315. In addition, the “% Breast, Pen Average” value with commercial broilers [2] (49 days, 1 lbs/ton natamycin in feed ad libitum, statistically significant) was 23.31* %. Moreover, the Solubility in water in data set [3] is 0.005-0.010 weight/weight percent.
